Laboratory results reported in patent US20250066445A1, “OBESITY TREATMENT AND PREVENTION METHODS” (VAULT BIOSCIENCES, INC., priority 2022, published 2025).

How the values were obtained:
Assay type in all cases: in vivo, human
[1] = Example 13 clinical study combining dulaglutide and fasting; conditions: One-Meal-A-Day, dose weeks 1-4: 0.2/0.375/0.375/0.6 mg
Source text: Example 13—Clinical Study of Combining Dulaglutide and Fasting Patients are subject to a combination HMT/HNT treatment protocol as described in Table 17 below. […] [table]

[2] = Example 15 clinical study combining dulaglutide and fasting; conditions: 18-hour fasting, dose weeks 1-4: 0.2/0.375/0.375/0.6 mg
Source text: Example 15—Clinical Study of Combining Dulaglutide and Fasting Patients are subject to a combination HMT/HNT treatment protocol as described in Table 19 below. […] [table]

[3] = Example 14 clinical study combining dulaglutide and fasting; conditions: 15-hour fasting, dose weeks 1-4: 0.2/0.375/0.375/0.6 mg
Source text: Example 14—Clinical Study of Combining Dulaglutide and Fasting Patients are subject to a combination HMT/HNT treatment protocol as described in Table 18 below. […] [table]

[4] = Example 2 clinical study combining semaglutide (injection) and fasting; conditions: 15-hour fasting, dose weeks 1-4: .25/.50/.50/1 mg
Source text: Example 2—Clinical Study of Combining Semaglutide (injection) and Fasting Patients are subject to a combination HMT/HNT treatment protocol as described in Table 6 below. […] [table]

[5] = Example 1 clinical study combining semaglutide (injection) and fasting, Patient 1; conditions: One-Meal-A-Day
Source text: Example 1—Clinical Study of Combining Semaglutide (Injection) and Fasting
Patient 1 was subject to a combination HMT/HNT treatment protocol as described below.

[6] = no exercise, no calorie counting
[7] = starting weight 282 lbs, 30 days, dose weeks 1-4: .25/.50/.50/1 mg, no exercise, no calorie counting

Substance: Dulaglutide
- Hunger [1]: no discernable or unusual hunger
- Therapeutic effects (e.g. weight loss) [1, 6]: Desirable therapeutics effects (e.g. weigh loss) are achieved
- Hunger [2]: no discernable or unusual hunger
- Therapeutic effects (e.g. weight loss) [2, 6]: Desirable therapeutics effects (e.g. weigh loss) are achieved
- Hunger [3]: no discernable or unusual hunger
- Therapeutic effects (e.g. weight loss) [3, 6]: Desirable therapeutics effects (e.g. weigh loss) are achieved

Substance: Semaglutide
- Hunger [4]: no discernable or unusual hunger
- Therapeutic effects (e.g. weight loss) [4, 6]: Desirable therapeutics effects (e.g. weigh loss) are achieved
- Hunger ([5]; 30 days, dose weeks 1-4: .25/.50/.50/1 mg): No discernable/unusual hunger
- Hunger ([5]; 30 days, dose weeks 1-4: .25/.50/.50/1 mg, listed as Semaglutide (Injection)): no discernable or unusual hunger
- Weight lost ([5]; in 30 days, no exercise, no caloric restrictions): 30 pounds
- % Bodyweight Reduction ([5]; starting weight 282 lbs, 30 days, dose weeks 1-4: .25/.50/.50/1 mg): −9.6%
- % Bodyweight Reduction ([5]; starting weight 282 lbs, 30 days, dose weeks 1-4: .25/.50/.50/1 mg, listed as Semaglutide (Injection)): approximately 9.6%
- Bodyweight reduction [5, 7]: −30 lbs
- Ending Weight [5, 7]: 252 lbs
